Measured values as given in patent US10252258B2, “Method for separating and concentrating target substance using novel cationic graft polymer” (priority 2014, dated 2019).

Test system: Escherichia coli
Experiment: Survival (viability) of bacteria collected using surfactant-containing solution
Type: cell-based
Conditions: 1% surfactant solution, 20° C.; then capture with 10% cationic graft polymer; one hundredth of suspension cultured 37° C. 18 hours; Control 1 >5000
Experimental: Escherichia coli precipitated on a separating agent in a blood collection tube is collected while being alive using a non-ionic surfactant-containing solution.
The produced Escherichia coli was added to a physiological saline solution in an amount of 2×10^8 cell/mL, and the resulting mixture was used as a sample.
To a blood collection tube, 3 mL of a bacterial solution in which Escherichia coli was dispersed in a physiological saline solution was added, and was centrifuged at 3000 rpm for five minutes. Thereafter, the supernatant was removed. Subsequently, 0.5 mL of a 1% surfactant solution was added to the blood collection tube, and a bacterial cell precipitated on a surface of a separating agent was dispersed.
The bacterial cell suspension was allowed to stand at 20° C. for 30 minutes and three hours. Thereafter, 100 μL of a 10% cationic graft polymer and 100 μL of a reaction solution were mixed and allowed to react for one minute. Thereafter, the resulting product was centrifuged for 30 seconds by a tabletop small centrifugal machine to obtain a precipitation pellet. The supernatant was removed, and the resulting precipitation pellet was completely dispersed with 500 μL of a dispersion solution to obtain a suspension. One hundredth of the suspension was cultured at 37° C. for 18 hours using a LB bacteria culture agar medium, and the number of living bacteria was confirmed by the number of colonies.
As a control, a physiological saline solution was used in place of the surfactant solution (Control 1).

C[C@H](CCC(=O)NCCC[N+](C)(C)CCCS(=O)(=O)[O-])[C@H]1CC[C@H]2[C@@H]3[C@H](O)C[C@@H]4C[C@H](O)CC[C@]4(C)[C@H]3C[C@H](O)[C@]12C [CHAPS]
the number of colonies, allowed to stand for 30 minutes: 84
the number of colonies, allowed to stand for 3 hours: 61

sucrose laurate
the number of colonies, allowed to stand for 30 minutes: 4000
the number of colonies, allowed to stand for 3 hours: 3200
